The record followed here is US8535897B2, “Assays for non-apoptotic cell death and uses thereof” (The Trustees of Columbia University in the City of New York, priority 2006, dated 2013).

SMILES strings stand for the structures. Where only a bound is given, the exact number is not on record here.

For one test, the system named is several tumor cell lines. The test is described as follows: Potency in several tumor cell lines. The class given is cell-based.
In another test the test system is SK-N-MC. The test is described as follows: Response of tumor cell lines to erastin (dose-response). It counts as cell-based. The protocol: (§1) In certain aspects, the invention provides that erastin is lethal to tumor cells with activating mutations in proteins downstream of RAS proteins. Dose-response of 30 tumor cell lines to erastin was measured, and at least 50% inhibition of cell viability in 19 of the 30 tumor cell lines was formed. Numerous sarcoma-derived tumor cell lines were sensitive to erastin, consistent with the fact that erastin was discovered in an engineered tumor cell line created from human fibroblasts. Non-limiting examples include, HT1080 fibrosarcoma cells. HT1080 fibrosarcoma cells, which have a known activating mutation in NRAS, (Plattner, R. et al. Differential contribution of the ERK and JNK mitogen-activated protein kinase cascades to Ras transformation of HT1080 fibrosarcoma and DLD-1 colon carcinoma cells. Oncogene. 18: 1807-17 (1999), were quite sensitive to erastin. In order to determine whether RAS-activated signaling was modulated in cell lines that respond to erastin, the phosphorylation status of ERK1/2 in 12 sarcoma cell lines with a range of sensitivities to erastin was evaluated. In certain aspects, the invention provides a non-zero correlation, such as for example, a correlation coefficient of 0.41, between ERK1/2 phosphorylation status and erastin sensitivity in these cell lines.
(§2) Given that oncogenic RAS activates at least four downstream pathways, analysis was performed to identify which downstream effects were necessary for erastin sensitivity. In certain embodiments, the invention provides that erastin inhibits growth and kills genuine tumor cells with RAS mutations. In other embodiments, the invention provides measures of the dose-response of 29 tumor cell lines to erastin, wherein there is at least 50% inhibition of viability in 18 of the cell lines (Table 4). Numerous sarcoma-derived tumor cell lines were sensitive to erastin, consistent with the fact that erastin was discovered in an engineered tumor cell line created from human fibroblasts.

The subject of another test is TC32. The description is as above. It counts as cell-based. The settings on record: TC 32. As for the experimental part:
as §1, §2

The test system of the next test is SK-ES-1. The test is described as above. It counts as cell-based. The settings on record: SICES1. The protocol: as §1, §2
Another test deals with SW872. Described as above. It counts as cell-based. The settings on record: SW 872. The protocol: as §1, §2
For a further test, the system named is TC71. The description is as above. The class given is cell-based. The settings on record: TC 71. As for the experimental part: as §1, §2
The next test relates to U973. The test is described as above. The class given is cell-based. The settings on record: U937. The protocol: as §1, §2
Another test concerns BJ-TERT/LT/ST/RASV12. The test is described as follows: Alamar blue viability assay, engineered tumor cells. The class given is cell-based, human. The protocol: Erastin was tested in a dilution series in five engineered cell lines derived from primary BJ fibroblasts. Cells were incubated with erastin for two days at 37° C. with 5% CO2, Alamar blue was added (10% final volume) and fluorescence measured (530 nm ex, 590 nm em). Cell lines harboring oncogenic RAS (triangles, circles and x's) were sensitive to erastin, but isogenic lines lacking oncogenic RAS (squares and diamonds) were resistant. Two different clones of engineered tumor cells (circles and triangles) responded similarly.
(a) BJ-TERT/LT/ST/RAS^V12 cells were treated with 9 μM erastin A1 for the indicated length of time, and the number of viable cells determined. (b) 1,000 BJ-TERT/LT/ST/RAS^V12 cells/well in 384-well plates were treated with erastin for 2 d, then alamar blue was added to a final concentration of 10% and the plates were incubated for 16 h. Red fluorescence resulting from reduction of alamar blue was detected on a Victor3 platereader. The percent growth inhibition is shown; error bars represent one SD. […] (c) TEM images (20,000× magnification) of BJ-TERT/LT/ST/RAS^V12 mitochondria after cells were treated with nothing, erastin (37 μM for 10 h) or staurosporine (STS, 1 μM for 5 h), and phase-contrast photograph of BJ-TERT/LT/ST/RAS^V12 cells 24 h after 9 μM erastin A1 treatment is also shown to indicate that even after cell death, nuclei are intact. (d) Anti-oxidants suppress erastin-induced death. BJ-TERT/LT/ST/RAS^V12 cells were treated as indicated and photographed. (e) The number of viable cells was quantified under each condition using a hemacytometer. (f) Iron chelators suppress erastin-induced cell death. Cells were seeded in 384-well plates (6,000 cells/well) and treated with 2-fold dilution series of erastin in the presence of 100 μM desferrioxamine mesylate (DFOM), 100 μM of iron chelator 1a, 100 μM of iron chelator 2, 10 μM or 1 μM of iron chelator 311. After 24 h, alamar blue was added and cell viability assayed. (g, h) Erastin-induced formation of oxidative species. BJ-TERT/LT/ST/RAS^V12 (shown in histogram plots, and in line graph as dark diamonds) or BJ-TERT cells (shown in line graph only, light circles) were treated with 4.6-μM erastin A1 and the level of intracellular oxidative species determined. (i, j) STS, but not erastin, induces PARP1 cleavage (red bands at top) in BJ-TERT/LT/ST/RAS^V12 cells and in A673, HT1080 and HeLa cells. NS: non-specific band. […] Cells were treated with STS or erastin, separated into mitochondrial and cytosolic fractions, and probed for cytochrome c (lower red band) and total VDAC (middle green band, pan-VDAC antibody). (1) Caspase-3 is not cleaved in response to erastin. Cells were treated as indicated and probed with an anti-caspase-3 antibody that recognizes both the full length and the cleaved, active form (lower band). […] ATP levels were measured, viable cells determined by Trypan Blue exclusion and ATP per viable cell determined. Abbreviations: DMSO, dimethylsulfoxide; BHT, butylated hydroxytoluene; TOC, alpha-tocopherol; ERA, erastin A1; CAR, beta-carotene; STS, staurosprine.
(a) Calu-1 lung carcinoma cells harboring oncogenic KRAS were infected with lentivirus containing shRNAs targeting KRAS or GFP. Sequences of shRNAs are indicated by starting nucleotide (nt) in the KRAS mRNA coding sequence. Cells were treated with erastin and viability measured by Trypan Blue exclusion. (b) Knockdown of KRAS was confirmed by western blot. (c,d) A673 cells harboring oncogenic BRAF were infected with lentiviral shRNAs targeting BRAF exon 5 (c) or the 5′ UTR (d), luciferase (LUC)(c) or GFP (d). Cells were treated with erastin and viability measured using Alamar Blue (c) and Trypan Blue (d). (e) Knockdown of BRAF was confirmed by western blot. […] BJ-TERT/LT/ST/RAS^V12 cells were treated with erastin alone or in with a MEK inhibitor U0126 (20 μM), MEK inhibitor I (10 μM) or MEK 1/2 inhibitor (50 μM). After 48 h, viability was determined using Trypan Blue. […]

The next test relates to A673. The test is described as follows: Response of tumor cell lines to erastin (dose-response). The class given is cell-based, human. As for the experimental part: as §1, §2
For another test, the system named is HT1080. The description is as above. It counts as cell-based, human. The settings on record: HT 1080. The protocol:
as §1, §2

Another test has as its system BJEH. The description is as above. It counts as cell-based, human. The settings on record: BJ-TERT. As for the experimental part: as §1, §2
The subject of a further test is BJELR. The description is as above. The class given is cell-based, human. The settings on record: BJ-TERT/LT/ST/RASV12. As for the experimental part: as §1, §2

Compound `CCOc1ccccc1-n1c(C(C)N2CCN(C(=O)COc3ccc(Cl)cc3)CC2)nc2ccccc2c1=O` (stereo not shown) [erastin] gave a potency in the test with several tumor cell lines of 1000 to 5000 nM. The “Erastin Sensitivity (maximum killing induced by erastin)” value in the test on SK-N-MC is listed as 0.95; in the test with TC32 it was 0.88; in the test on SK-ES-1 it was 0.96; with SW872 it was 0.00; in the test on TC71 it was 0.92; in the test on U973, 0.73. Further, the “Erastin Sensitivity (maximum killing induced by erastin)” value came to 0.54 in the test on A673, 0.98 with HT1080, 0.22 in the test with BJEH and 1.00 with BJELR. Moreover, the RAS-selective lethality entry in the test on BJ-TERT/LT/ST/RASV12 was “at least 16 fold”. Further, the RAS selectivity in the test with BJ-TERT/LT/ST/RASV12 (BJ-TERT/LT/ST vs BJ-TERT/LT/ST/RASV12) was greater than 16.
